Molecules are shown by their SMILES. Calls of active or inactive are those of the source.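 Rule for the calls: active = activity score of 50 or more, meaning choline uptake cut by at least half versus untreated control; inactive = the rest.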

Activity remaining, low choline and activity remaining, high choline data for 51 molecules are collected here from PubChem BioAssay AID652215 (Vanderbilt Specialized Chemistry Center, 2013).

In this test the target is High affinity choline transporter 1 (Homo sapiens) (UniProt Q9GZV3). Briefly: choline transporter uptake block, single concentration – cell-based, HEK-293 hCHT LV-AA, [3H]-choline, mechanism study for choline transporter inhibitor project, SAR follow-up (AID 652215). As to conditions: [3H]-choline uptake, 15 min, at 5 µM, stronger effect = lower value; for activity remaining, high choline: measured here: 10 uM choline uptake.
High affinity choline transporter 1 (Homo sapiens), sequence (Q9GZV3 whole entry, looked up): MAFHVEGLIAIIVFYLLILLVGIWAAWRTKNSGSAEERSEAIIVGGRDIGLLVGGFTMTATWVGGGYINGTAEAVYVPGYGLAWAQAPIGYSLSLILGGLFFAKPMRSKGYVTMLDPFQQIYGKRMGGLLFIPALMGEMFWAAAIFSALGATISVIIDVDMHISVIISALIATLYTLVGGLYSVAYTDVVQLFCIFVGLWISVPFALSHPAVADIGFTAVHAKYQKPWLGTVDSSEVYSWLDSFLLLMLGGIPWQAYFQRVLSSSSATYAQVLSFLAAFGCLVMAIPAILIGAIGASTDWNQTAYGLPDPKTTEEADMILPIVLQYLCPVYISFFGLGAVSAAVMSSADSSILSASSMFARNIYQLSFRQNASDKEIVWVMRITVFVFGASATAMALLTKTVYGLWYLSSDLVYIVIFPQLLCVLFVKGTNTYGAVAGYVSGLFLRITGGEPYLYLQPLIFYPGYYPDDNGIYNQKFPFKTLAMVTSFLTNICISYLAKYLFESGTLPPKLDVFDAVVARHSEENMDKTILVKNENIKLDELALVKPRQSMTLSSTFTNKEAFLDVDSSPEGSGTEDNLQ

For `COc1ccc(C(=O)NCc2cc(C(C)C)no2)cc1OCc1ccccn1`, the activity remaining, low choline was 87.2% (inactive) and the activity remaining, high choline came out at 100%.
On to `COc1ccc(C(=O)NCc2cc(C(C)C)no2)cc1OCc1ccccc1`, for which the activity remaining, low choline was 90.8% (inactive) and the activity remaining, high choline came out at 97.2%.
With `CCc1cc(CNC(=O)c2ccc(OC)c(OCCN3CCOCC3)c2)on1`, the activity remaining, low choline is 69.2% (inactive) and the activity remaining, high choline is 78.9%.
For `CCc1cc(CNC(=O)c2ccc(OC)c(OCC3CCC3)c2)on1` the same measures were 91.1% (inactive) and 70.2%.
In the case of `CCc1cc(CNC(=O)c2ccc(OC)c(OC3CCCN(C)C3)c2)on1` (configuration not stated), the activity remaining, low choline is 56.5% (inactive) and the activity remaining, high choline was 67.1%.
Consider `COc1ccc(C(=O)NCc2cc(C(C)C)no2)cc1OCC1CCCCC1`, for which the activity remaining, low choline is 87.2% (inactive) and the activity remaining, high choline is 83%.
Take `CCc1cc(CNC(=O)c2ccc(OC)c(OCCN3CCCC3)c2)on1`: the activity remaining, low choline was 59.3% (inactive) and the activity remaining, high choline was determined as 71.4%.
For the molecule `COc1ccc(C(=O)NCCc2cnn(C)c2)cc1OC1CCN(C(C)C)CC1`, the activity remaining, low choline was 36.7% and the activity remaining, high choline came out at 88.3%.
As to `CCc1cc(CNC(=O)c2ccc(OC)c(O)c2)on1`, the activity remaining, low choline was 93.7% (inactive) and the activity remaining, high choline was determined as 90.1%.
On to `CCOc1cc(C(=O)NCc2cc(CC)no2)ccc1OC`, for which the activity remaining, low choline is 86.4% (inactive) and the activity remaining, high choline came out at 87.1%.
As to `COc1ccc(C(=O)NCCCn2cccn2)cc1OC1CCN(C(C)C)CC1`, the activity remaining, low choline is 20.4% and the activity remaining, high choline was determined as 77.5%.
As to `COc1ccc(C(=O)NC2CCCCC2)cc1OC1CCN(C(C)C)CC1`, the activity remaining, low choline was 72.2% (inactive) and the activity remaining, high choline worked out at 78.8%.
For the molecule `CCc1cc(CNC(=O)c2ccc(OC)c(OC3CCNCC3)c2)on1`, the activity remaining, low choline is 62.2% (inactive) and the activity remaining, high choline came out at 94.7%.
With `CCc1cc(CNC(=O)c2ccc(OC)c(OCc3ccccn3)c2)on1`, the activity remaining, low choline was 90.2% (inactive) and the activity remaining, high choline was 102%.
Consider `COc1ccc(C(=O)NC(C)c2cn(C)nc2C)cc1OC1CCN(C(C)C)CC1` (configuration not stated), for which the activity remaining, low choline was 57.1% (inactive) and the activity remaining, high choline turned out to be 73.9%.
Take `COc1ccc(C(=O)NC(C)c2nccs2)cc1OC1CCN(C(C)C)CC1` (configuration not stated): the activity remaining, low choline is 34.1% and the activity remaining, high choline came to 72.1%.
For `COc1ccc(C(=O)NCc2cc(C(C)C)no2)cc1OC(C)C` the same measures were 89.4% (inactive) and 99.8%.
For `CCOc1cc(C(=O)NCc2cc(C(C)C)no2)ccc1OC` the same measures were 93.9% (inactive) and 78.2%.
Consider `COc1ccc(C(=O)NCC2CCOCC2)cc1OC1CCN(C(C)C)CC1`, for which the activity remaining, low choline is 80% (inactive) and the activity remaining, high choline worked out at 74.5%.
`CCc1cc(CNC(=O)c2ccc(OC)c(OC(=O)c3ccc(OC)c(O)c3)c2)on1`: the activity remaining, low choline is 92.3% (inactive) and the activity remaining, high choline turned out to be 88.5%.
With `COc1ccc(C(=O)NCc2cnn(C)c2C)cc1OC1CCN(C(C)C)CC1`, the activity remaining, low choline was 33.1% and the activity remaining, high choline turned out to be 57%.
Consider `COc1ccc(C(=O)NCc2cc(C(C)C)no2)cc1OCc1ccncc1`, for which the activity remaining, low choline was 85.9% (inactive) and the activity remaining, high choline is 83.8%.
As for `CCc1cc(CNC(=O)c2ccc(OC)c(OC3CCN(C(C)C)CC3)c2)on1`, the activity remaining, low choline is 92.9% (inactive) and the activity remaining, high choline came to 71%.
Regarding `CCCCOc1cc(C(=O)NCc2cc(C(C)C)no2)ccc1OC`, the activity remaining, low choline is 85.6% (inactive) and the activity remaining, high choline was 88.8%.
Take `CCc1cc(CNC(=O)c2ccc(OC)c(OC3CCN(C)CC3)c2)on1`: the activity remaining, low choline is 7.98% and the activity remaining, high choline worked out at 56.4%.
With `COc1ccc(CNC(=O)c2ccc(OC)c(OC3CCN(C(C)C)CC3)c2)cc1OC`, the activity remaining, low choline is 52.7% (inactive) and the activity remaining, high choline amounted to 83.6%.
Take `COc1ccc(C(=O)NCc2cc(C(C)C)no2)cc1OCC1CCC1`: the activity remaining, low choline is 94.9% (inactive) and the activity remaining, high choline stood at 92.7%.
On the same counts, the results for `COc1ccc(C(=O)NCc2cc(C(C)C)no2)cc1OCCCN(C)C` are 67.3% (inactive) and 59.6%.
For `CCCCOc1cc(C(=O)NCc2cc(CC)no2)ccc1OC` the same measures were 92.3% (inactive) and 62.3%.
On the same counts, the results for `COCCOc1cc(C(=O)NCc2cc(C(C)C)no2)ccc1OC` are 86.8% (inactive) and 84.5%.
As for `COc1ccc(C(=O)N[C@H]2CCCCNC2=O)cc1OC1CCN(C(C)C)CC1`, the activity remaining, low choline is 13.1% and the activity remaining, high choline stood at 73.4%.
In the case of `COc1ccc(C(=O)NCCc2c[nH]c3ccccc23)cc1OC1CCN(C(C)C)CC1`, the activity remaining, low choline is 15.9% and the activity remaining, high choline is 58%.
Turning to `COc1ccc(C(=O)N[C@H]2CC[C@H](O)CC2)cc1OC1CCN(C(C)C)CC1`, the activity remaining, low choline is 29.7% and the activity remaining, high choline was found to be 101%.
As to `COc1ccc(C(=O)NCCCn2ccnc2)cc1OC1CCN(C(C)C)CC1`, the activity remaining, low choline is 52.4% (inactive) and the activity remaining, high choline is 60.8%.
Take `COc1ccc(C(=O)NCC(C)Oc2cccnc2)cc1OC1CCN(C(C)C)CC1` (configuration not stated): the activity remaining, low choline is 43.1% and the activity remaining, high choline worked out at 71.2%.
For `COc1ccc(C(=O)NCCN2CCCCC2=O)cc1OC1CCN(C(C)C)CC1`, the activity remaining, low choline is 80.3% (inactive) and the activity remaining, high choline is 84.5%.
Regarding `COc1ccc(C(=O)NCc2ccccc2C)cc1OC1CCN(C(C)C)CC1`, the activity remaining, low choline was 32.9% and the activity remaining, high choline stood at 64.8%.
With `COc1ccc(C(=O)NCCc2ccncc2)cc1OC1CCN(C(C)C)CC1`, the activity remaining, low choline is 71.2% (inactive) and the activity remaining, high choline was found to be 82.8%.
For the molecule `COc1ccc(C(=O)NCc2cccc(C)c2)cc1OC1CCN(C(C)C)CC1`, the activity remaining, low choline was 29.4% and the activity remaining, high choline worked out at 60.9%.
Regarding `CCc1cc(CNC(=O)c2ccc(OC)c(OCCOC)c2)on1`, the activity remaining, low choline is 89.1% (inactive) and the activity remaining, high choline turned out to be 80.6%.
Turning to `CCc1cc(CNC(=O)c2ccc(OC)c(OC(C)CN(C)C)c2)on1` (configuration not stated), the activity remaining, low choline was 77.1% (inactive) and the activity remaining, high choline is 57.9%.
As to `COc1ccc(C(=O)NCc2ccc(Cl)s2)cc1OC1CCN(C(C)C)CC1`, the activity remaining, low choline was 35.3% and the activity remaining, high choline was determined as 81%.
As for `CCc1cc(CNC(=O)c2ccc(OC)c(OCc3cccnc3)c2)on1`, the activity remaining, low choline is 94.5% (inactive) and the activity remaining, high choline was determined as 72%.
On to `COc1ccc(C(=O)NCc2cc(C(C)C)no2)cc1OCc1cccnc1`, for which the activity remaining, low choline was 87.3% (inactive) and the activity remaining, high choline stood at 95.5%.
Turning to `COc1ccc(C(=O)NCc2ccon2)cc1OC1CCN(C(C)C)CC1`, the activity remaining, low choline was 46% and the activity remaining, high choline is 83.3%.
As for `COc1ccc(C(=O)NCC[C@@H]2C[C@@H]3C=C[C@H]2C3)cc1OC1CCN(C(C)C)CC1`, the activity remaining, low choline was 9.91% and the activity remaining, high choline worked out at 66.3%.
On the same counts, the results for `CCc1cc(CNC(=O)c2ccc(OC)c(OCc3ccccc3)c2)on1` are 90% (inactive) and 107%.
Take `COc1ccc(C(=O)NCC2OCCc3ccccc32)cc1OC1CCN(C(C)C)CC1` (configuration not stated): the activity remaining, low choline is 71.9% (inactive) and the activity remaining, high choline came to 67.1%.
On the same counts, the results for `CCc1cc(CNC(=O)c2ccc(OC)c(OCCN3CCCCC3)c2)on1` are 22.7% and 38.2%.
On the same counts, the results for `COc1ccc(C(=O)NCCN2CCOC2=O)cc1OC1CCN(C(C)C)CC1` are 41.8% and 97.6%.
Consider `CCc1cc(CNC(=O)c2ccc(OC)c(OC3CCCC3)c2)on1`, for which the activity remaining, low choline was 98% (inactive) and the activity remaining, high choline is 99.4%.
